The IC50 is the concentration that inhibits the measured activity by half. Low values mean higher potency, high ones lower potency.

The subject of one assay is WI-38. The assay is described as follows: Cytotoxicity activity against human WI38 cells measured after 48 hrs by MTT assay. Type of assay: cell-based. The note with it: WI-38, 48 h. A general note: Tetrazolium assays rely on reduction of a dye to a coloured formazan, in cell work by metabolically active cells.
The next assay concerns HepG2. The assay is described as follows: Antiproliferative activity against human HepG2 cells measured after 48 hrs by MTT assay. Type of assay: functional, cell-based. The note with it: HepG2, 48 h.
For the next assay, the system named is PC-3. Briefly: Antiproliferative activity against human PC3 cells measured after 48 hrs by MTT assay. The format is functional, cell-based. The settings on record: PC-3, 48 h.
The subject of a further assay is A549. The assay is described as follows: Antiproliferative activity against human A549 cells measured after 48 hrs by MTT assay. Type of assay: functional, cell-based. The settings on record: A549, 48 h.

For `CO[C@H]1C[C@H](O[C@H]2CC[C@@]3(C)C(=CC[C@H]4C5=CC(=O)[C@@H]6[C@@H](C)OC(=O)[C@]56CC[C@@H]43)C2)O[C@H](C)[C@H]1O[C@@H]1C[C@@H](OC)[C@H](O)[C@@H](C)O1`, the 50% inhibitory concentration (IC50) in the assay with WI-38 stood at 5.5 µM; in the assay with HepG2, 2 µM; with PC-3, 3.6 µM; in the assay with A549 it was 2.4 µM.

Turning to `CO[C@H]1C[C@H](O[C@H]2CC[C@@]3(C)[C@@H](CC[C@H]4C5=CC(=O)[C@@H]6[C@@H](C)OC(=O)[C@]56CC[C@@H]43)C2)O[C@H](C)[C@H]1O[C@H]1C[C@@H](OC)[C@H](O)[C@@H](C)O1`, the half-maximal inhibitory concentration (IC50) with WI-38, in the assay with HepG2, in the assay with PC-3 and with A549 was greater than 50 µM throughout.

Take `C[C@H]1O[C@@H](O[C@H]2CC[C@@]3(C)C(=CC[C@H]4C5=CC(=O)[C@@H]6[C@@H](C)OC(=O)[C@]56CC[C@@H]43)C2)C[C@H](O)[C@@H]1O`: the IC50 with WI-38, in the assay on HepG2, in the assay with PC-3 and with A549 was greater than 50 µM each time.

In the case of `CO[C@H]1C[C@H](O[C@H]2CC[C@@]3(C)[C@@H](CC[C@H]4C5=CC(=O)[C@@H]6[C@@H](C)OC(=O)[C@]56CC[C@@H]43)C2)O[C@H](C)[C@H]1O`, the 50% inhibitory concentration (IC50) with WI-38, in the assay with HepG2, in the assay with PC-3 and with A549 was greater than 50 µM throughout.

On to `CO[C@H]1C[C@@H](O[C@@H]2[C@H](O)C[C@H](O[C@H]3CC[C@@]4(C)C(=CC[C@H]5C6=CC(=O)[C@@H]7[C@@H](C)OC(=O)[C@]67CC[C@@H]54)C3)O[C@@H]2C)O[C@H](C)[C@H]1O`, for which the IC50 in the assay on WI-38, in the assay with HepG2, with PC-3 and in the assay with A549 was greater than 50 µM throughout.

Turning to `COc1cccc2c1C(=O)c1c(O)c3c(c(O)c1C2=O)C[C@@](O)(C(=O)CO)C[C@@H]3O[C@H]1C[C@H](N)[C@H](O)[C@H](C)O1` [DOXORUBICIN], the IC50 in the assay with HepG2, with PC-3 and in the assay on A549 was 0.5 to 0.8 µM each time.

With `C[C@H]1OC(=O)[C@]23CC[C@H]4[C@@H](C(C=O)=C5C[C@@H](O)CC[C@@]54C)[C@@]2(O)CC[C@H]13`, the IC50 with WI-38, in the assay with HepG2, in the assay with PC-3 and in the assay with A549 was greater than 50 µM in each case.

For `CO[C@H]1C[C@H](O[C@H]2CC[C@@]3(C)C(=CC[C@@H]4[C@@H]3CC[C@]35C(=O)O[C@H](C)[C@H]3CC[C@]45O)C2)O[C@H](C)[C@H]1O[C@@H]1C[C@H](OC)[C@H](O[C@@H]2C[C@@H](OC)[C@H](O)[C@@H](C)O2)[C@@H](C)O1`, the IC50 in the assay on WI-38, with HepG2, in the assay on PC-3 and with A549 was greater than 50 µM in each case.

As for `C[C@H]1OC(=O)[C@]23CC[C@H]4[C@@H](CC[C@H]5C[C@@H](O)CC[C@@]54C)[C@@]2(O)CC[C@H]13`, the IC50 in the assay with WI-38, in the assay with HepG2, in the assay with PC-3 and with A549 was greater than 50 µM throughout.

Consider `C[C@H]1O[C@@H](O[C@H]2CC[C@@]3(C)[C@@H](CC[C@H]4C5=CC(=O)[C@@H]6[C@@H](C)OC(=O)[C@]56CC[C@@H]43)C2)C[C@H](O)[C@@H]1O`, for which the IC50 with WI-38, in the assay on HepG2, with PC-3 and with A549 was greater than 50 µM throughout.

As for `CO[C@H]1C[C@@H](O[C@H]2[C@@H](OC)C[C@H](O[C@H]3CC[C@@]4(C)C(=CC[C@@H]5[C@@H]4CC[C@]46C(=O)O[C@H](C)[C@H]4CC[C@]56O)C3)O[C@@H]2C)O[C@H](C)[C@H]1O`, the IC50 in the assay with WI-38, with HepG2, in the assay on PC-3 and with A549 was greater than 50 µM in each case.

Consider `C[C@H]1OC(=O)[C@]23CC[C@@H]4[C@@]5(C)CC[C@H](O)CC5=CC[C@@]4(O)[C@@]2(O)CC[C@H]13`, for which the IC50 in the assay on WI-38, in the assay with HepG2, in the assay on PC-3 and with A549 was greater than 50 µM in each case.

`CO[C@H]1C[C@@H](O[C@H]2[C@@H](O)C[C@H](O[C@H]3CC[C@@]4(C)C(=CC[C@@H]5[C@@H]4CC[C@]46C(=O)O[C@H](C)[C@H]4CC[C@]56O)C3)O[C@@H]2C)O[C@H](C)[C@H]1O`: the IC50 in the assay with WI-38, in the assay on HepG2, in the assay on PC-3 and with A549 was greater than 50 µM each time.

`CO[C@H]1C[C@@H](O[C@H]2[C@@H](O)C[C@H](O[C@H]3CC[C@@]4(C)[C@@H](CC[C@H]5C6=CC(=O)[C@@H]7[C@@H](C)OC(=O)[C@]67CC[C@@H]54)C3)O[C@@H]2C)O[C@H](C)[C@H]1O`: the IC50 in the assay with WI-38, with HepG2, with PC-3 and with A549 was greater than 50 µM each time.

`CO[C@H]1C[C@H](O[C@H]2CC[C@@]3(C)C(=C(C=O)[C@@H]4[C@@H]3CC[C@]35C(=O)O[C@H](C)[C@H]3CC[C@]45O)C2)O[C@H](C)[C@H]1O`: the 50% inhibitory concentration (IC50) in the assay on WI-38, in the assay with HepG2, with PC-3 and in the assay on A549 was greater than 50 µM throughout.

(Values after ChEMBL document CHEMBL4392877, “Cytotoxic Pregnane Steroidal Glycosides from Chonemorpha megacalyx” (J Nat Prod, 2019).)
